According to the supplement of paper PMC10307832:

Columns and labels:
Assay in all cases: relative viability (nuclei count vs DMSO), 5 days (fraction); higher = more cells survive
[1] = compound: CN[C@@H]1C[C@H]2O[C@@](C)([C@@H]1OC)n1c3ccccc3c3c4c(c5c6ccccc6n2c5c31)C(=O)NC4 [Staurosporine] + Cc1cc(Nc2cc(N3CCN(C)CC3)nc(Sc3ccc(NC(=O)C4CC4)cc3)n2)n[nH]1 [Tozasertib] (partner 0.1 µM)
Method in brief: (§1)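 Each reported value is a median over duplicate plates. It expresses relative viability: treated-well nuclei count divided by vehicle-well nuclei count. Lung cancer cell lines in 1536-well plates were dosed by pin tool a day after seeding, alone with one drug or with a fixed anchor-drug dose plus five library-drug doses (not always all listed) in √10 steps, and nuclei were counted after 5 days.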

Sulindac + Alpelisib = compound: CC1=C(CC(=O)O)c2cc(F)ccc2/C1=C\c1ccc([S+](C)[O-])cc1 [Sulindac] + Cc1nc(NC(=O)N2CCC[C@H]2C(N)=O)sc1-c1ccnc(C(C)(C)C(F)(F)F)c1 [Alpelisib] (partner 2 µM)
Method in brief: as §1

[2] = compound: O=c1[nH]cc(F)c(=O)[nH]1 [5-Fluorouracil] + CC1(C)CCC(c2ccc(Cl)cc2)=C(CN2CCN(c3ccc(C(=O)NS(=O)(=O)c4ccc(N[C@H](CCN5CCOCC5)CSc5ccccc5)c(S(=O)(=O)C(F)(F)F)c4)cc3)CC2)C1 [Navitoclax] (partner 0.5 µM)
Method in brief: as §1

5-Fluorouracil + AZD7762 = compound: O=c1[nH]cc(F)c(=O)[nH]1 [5-Fluorouracil] + NC(=O)Nc1cc(-c2cccc(F)c2)sc1C(=O)N[C@H]1CCCNC1 [AZD7762] (partner 0.2 µM)
Method in brief: as §1

Row | Cell Line | relative viability ([1]; first compound 0.005 µM) | relative viability ([1]; first compound 0.01581 µM) | relative viability ([1]; first compound 0.05 µM) | relative viability ([1]; first compound 0.1581 µM) | relative viability ([1]; first compound 0.5 µM) | relative viability (Sulindac + Alpelisib; first compound 0.08 µM) | relative viability (Sulindac + Alpelisib; first compound 0.253 µM) | relative viability (Sulindac + Alpelisib; first compound 0.8 µM) | relative viability (Sulindac + Alpelisib; first compound 2.53 µM) | relative viability (Sulindac + Alpelisib; first compound 8 µM) | relative viability ([2]; first compound 0.02 µM) | relative viability ([2]; first compound 0.2 µM) | relative viability ([2]; first compound 0.6325 µM) | relative viability ([2]; first compound 2 µM) | relative viability (5-Fluorouracil + AZD7762; first compound 0.02 µM) | relative viability (5-Fluorouracil + AZD7762; first compound 0.2 µM) | relative viability (5-Fluorouracil + AZD7762; first compound 0.6325 µM) | relative viability (5-Fluorouracil + AZD7762; first compound 2 µM)
1 | SK-MES-1 | 0.52 | 0.327 | 0.149 | 0.125 | 0.125 | 1.06 | 1.05 | 0.601 | 0.815 | 0.982 | 1.2 | 0.789 | 0.474 | 0.373 | – | – | – | –
2 | NCI-H1563 | – | – | – | – | – | 0.915 | 0.853 | 0.86 | 0.884 | 0.923 | – | – | – | – | – | – | – | –
3 | SW 900 | 0.541 | 0.239 | 0.246 | 0.206 | 0.162 | – | – | – | – | – | – | – | – | – | 0.739 | 0.695 | 0.543 | 0.398
4 | NCI-H1299 | – | – | – | – | – | 1.23 | 1.19 | 0.624 | 1.2 | 1.08 | 1.07 | 1.1 | 1.06 | 0.895 | – | – | – | –
5 | A549 | – | – | – | – | – | 0.866 | 1.04 | – | 0.758 | 0.87 | 1.2 | 0.754 | 0.244 | 0.114 | – | – | – | –
6 | NCI-H1623 | 0.491 | 0.495 | 0.406 | 0.425 | 0.277 | – | – | – | – | – | – | – | – | – | – | – | – | –
7 | NCI-H2228 | 0.251 | 0.201 | 0.109 | 0.115 | 0.124 | 0.67 | 0.862 | 0.725 | 0.825 | 0.753 | 0.808 | 1.06 | 0.732 | 0.42 | – | – | – | –
8 | NCI-H2023 | 0.202 | 0.21 | 0.0713 | 0.0971 | 0.0603 | 0.683 | 0.572 | 0.472 | 0.591 | 0.587 | 1.01 | 0.257 | 0.161 | 0.122 | – | – | – | –
9 | NCI-H2342 | 0.406 | 0.495 | 0.295 | 0.305 | 0.278 | – | – | – | – | – | – | – | – | – | 0.473 | 0.622 | 0.557 | 0.546
10 | Calu-6 | – | – | – | – | – | 1.06 | 1.09 | 0.774 | 1.08 | 1.23 | 0.859 | 0.786 | 0.679 | 0.362 | – | – | – | –
11 | ChaGo-K-1 | 0.202 | 0.181 | 0.162 | 0.145 | 0.157 | – | – | – | – | – | 0.956 | 1.07 | 0.672 | 0.685 | 0.883 | 0.917 | 0.609 | 0.383
12 | COR-L23 | 0.102 | 0.112 | 0.0926 | 0.0869 | 0.0647 | 0.871 | 0.867 | – | 0.714 | 1.13 | 1.05 | 0.949 | 0.533 | 0.239 | – | – | – | –
13 | LCLC-103H | 0.534 | 0.207 | 0.174 | 0.128 | 0.146 | 1.06 | 1.07 | 0.892 | 0.869 | 1.09 | – | – | – | – | 0.734 | 0.758 | 0.546 | 0.381
14 | NCI-H520 | 0.57 | 0.473 | 0.423 | 0.366 | 0.303 | 0.965 | 0.839 | 0.894 | 0.873 | 1.17 | 0.81 | 1.19 | 0.873 | 0.406 | – | – | – | –
